# In publication PMC11851430, “Workflow for E3 Ligase Ligand Validation for PROTAC Development” (ACS Chemical Biology, 2025):
# Legend:
# [1] = target: T1, MAPK1A (Homo sapiens, UniProt P28482); experiment: DSF assay; assay type: binding; details: 20 µM compound
# T1 construct: purchased in-house DSF panel (SGC-style construct names; the trailing A/B is a construct suffix)
# [2] = target: T2, FGFR1B (Homo sapiens, UniProt P11362); experiment: DSF assay; assay type: binding; details: 20 µM compound
# T2 construct: purchased in-house DSF panel (SGC-style construct names; the trailing A/B is a construct suffix)
# T2 sequence (P11362 456-767): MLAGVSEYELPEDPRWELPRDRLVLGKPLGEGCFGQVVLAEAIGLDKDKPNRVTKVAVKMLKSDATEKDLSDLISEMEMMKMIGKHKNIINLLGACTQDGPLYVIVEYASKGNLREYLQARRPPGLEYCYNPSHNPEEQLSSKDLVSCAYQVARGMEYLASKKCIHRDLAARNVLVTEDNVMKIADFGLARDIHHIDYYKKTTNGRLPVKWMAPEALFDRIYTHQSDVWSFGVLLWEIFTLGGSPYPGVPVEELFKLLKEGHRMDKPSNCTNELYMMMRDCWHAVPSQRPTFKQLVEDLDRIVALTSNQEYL
# [3] = target: full-length AAK1 (Homo sapiens, UniProt Q2M2I8); experiment: NanoBRET target engagement assay, intact and permeabilized cells
# Sequence of full-length AAK1 (Q2M2I8 whole entry, the tested form may be a part): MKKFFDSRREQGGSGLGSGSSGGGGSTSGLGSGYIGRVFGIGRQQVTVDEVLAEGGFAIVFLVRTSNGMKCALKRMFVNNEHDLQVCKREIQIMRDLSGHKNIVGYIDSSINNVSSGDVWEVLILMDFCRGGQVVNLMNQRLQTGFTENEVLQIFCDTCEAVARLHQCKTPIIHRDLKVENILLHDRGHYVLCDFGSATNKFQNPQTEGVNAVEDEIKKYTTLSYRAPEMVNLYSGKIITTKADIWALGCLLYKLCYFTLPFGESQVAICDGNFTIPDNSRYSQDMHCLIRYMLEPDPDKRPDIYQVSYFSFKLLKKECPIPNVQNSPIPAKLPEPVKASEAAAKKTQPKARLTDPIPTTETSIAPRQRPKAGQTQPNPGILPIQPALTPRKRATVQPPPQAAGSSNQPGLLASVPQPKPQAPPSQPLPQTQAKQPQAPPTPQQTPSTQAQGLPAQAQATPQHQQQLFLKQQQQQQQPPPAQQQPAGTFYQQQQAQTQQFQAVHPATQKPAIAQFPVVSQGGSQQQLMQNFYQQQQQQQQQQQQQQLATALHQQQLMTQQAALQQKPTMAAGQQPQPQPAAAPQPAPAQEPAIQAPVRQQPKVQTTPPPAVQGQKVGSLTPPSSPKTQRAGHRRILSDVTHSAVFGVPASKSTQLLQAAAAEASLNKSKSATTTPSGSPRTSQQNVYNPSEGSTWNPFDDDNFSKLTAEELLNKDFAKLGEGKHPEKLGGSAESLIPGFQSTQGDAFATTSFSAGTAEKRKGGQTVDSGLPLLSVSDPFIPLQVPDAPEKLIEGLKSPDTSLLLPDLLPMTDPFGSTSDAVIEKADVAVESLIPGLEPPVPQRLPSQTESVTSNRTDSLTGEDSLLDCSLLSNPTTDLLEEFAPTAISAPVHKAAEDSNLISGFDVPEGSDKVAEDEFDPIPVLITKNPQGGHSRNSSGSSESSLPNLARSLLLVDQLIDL
# [4] = target: VHL (Homo sapiens, UniProt P40337); experiment: cell-based; parameters: full-length, NanoLuc fusion (Promega N2741); species or system HEK293T; NanoBRET VHL tracer displacement in permeabilized cells, NanoLuc-VHL fusion; details: permeabilized cells; read-out: VHL permeabilized (IC50±sd)/µM
# Sequence of VHL (P40337 whole entry, the tested form may be a part): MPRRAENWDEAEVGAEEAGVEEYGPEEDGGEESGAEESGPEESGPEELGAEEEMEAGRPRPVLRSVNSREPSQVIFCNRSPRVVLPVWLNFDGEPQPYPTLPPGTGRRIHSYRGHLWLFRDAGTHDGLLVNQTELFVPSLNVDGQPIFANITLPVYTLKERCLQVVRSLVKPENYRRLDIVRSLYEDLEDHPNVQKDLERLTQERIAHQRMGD
# [5] = target: T3, kinase protein levels in MCF-7 cells (Homo sapiens, UniProt A0A096LP01); experiment: TMT-labeled quantitative proteomics; assay type: cell-based
# T3 construct: endogenous in cells; host or cells: MCF-7
# T3 sequence (A0A096LP01 whole entry): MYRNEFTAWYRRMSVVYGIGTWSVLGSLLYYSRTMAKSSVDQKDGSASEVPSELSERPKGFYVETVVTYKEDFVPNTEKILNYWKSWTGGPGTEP
# Protocol: (§1) 50 µl of SDS Lysis Buffer (2% SDS, 50 mM TRIS pH 8.5, 10 mM TCEP, 40 mM CAA) was added to each sample. Cells were transferred into low binding reaction tubes (Eppendorf:
# (§2) Methanol/Chloroform Precipitation. 200 µl of methanol and 50 µl of chloroform were added to each sample reaction tube and mixed via vortex. 150 µl of milliQ-H2O were added and samples were vortexed further. Samples were centrifuged for 5 minutes at 15000 g and the aqueous layer above the interphase was removed. 150 µl of methanol was added, samples were vortexed and centrifuged for 10 minutes at 15000 g to precipitate the pellet. The aforementioned wash procedure was repeated twice before transferring the pellet to a new low bind reaction tube in which it was allowed to dry for 5 minutes.
# (§3) Dissolving the Protein Pellet and Protein Quantification. 50 µl of digestion buffer (8 M Urea, 50 mM TRIS pH 8) was added to each sample before vortexing and shaking at 750 rpm at room temperature for 10 minutes to solubilize the pellet. Protein quantification via PierceTM […]
# (§4) Protein Digestion. Samples were diluted 1:2 with 50 mM TRIS pH 8.5 to reach a final concentration of 4 M Urea. Lys-C (Promega: VA1170) was added at a 1:100 enzyme/substrate ratio. Samples were agitated at 550 rpm and 37 °C for 3 h. Samples were further diluted with 50 mM TRIS pH 8.5 to a final concentration of 1 M Urea and Trypsin (Promega: V5280) was added at a 1:100 enzyme/substrate ratio. Samples were agitated overnight at 550 rpm and 37 °C. The digestion was stopped the following day via addition of TFA to a final concentration […]
# (§5) Solid Phase Extraction via C18 Cartridges. Sep-Pak C18 Cartridges (Waters: WAT054955) were used for solid phase extraction of digested peptides. For preconditioning of C18 cartridges, 1 mL of methanol was added to each column followed by 1 mL of solution B (0.1% formic acid, 80% acetonitrile) and 1 mL of solution A (0.1% formic acid, ddH2O) twice. Samples […]
# (§6) were loaded to their respective columns and once samples had passed, columns were washed twice with solution A to remove unwanted components from the loading step. Elution of samples was carried out via introduction of 40% and 60% acetonitrile steps. Samples were dried and snap frozen in liquid nitrogen.
# (§7) TMT-Labeling. Desalted peptides were dried and resuspended in TMT-labeling buffer (200 mM EPPS pH 8.2, 20% acetonitrile). 10 μg of peptides per condition were subjected to TMT labeling with 1:2.5 peptide TMT ratio (w/w) for 1 h at room temperature. The labeling reaction was quenched by addition of hydroxylamine to a final concentration of 0.5% and incubation at room temperature for 15 minutes. Successful TMT labeling was verified by mixing equimolar ratios of peptides and subjecting the mix to single shot LC-MS/MS analysis. For high pH reversed phase fractionation on a Dionex analytical HPLC, 50 µg of pooled and purified TMT labelled samples were resuspended in 10 mM ammonium-bicarbonate (ABC), 5% acetonitrile, and separated on a 250 mm long C18 column (Aeris Peptide XB-C18, 4.6 mm ID, 2.6 µm particle size; Phenomenex) using a multistep gradient from 100% solvent A (5% acetonitrile, 10 mM ABC in water) to 60% solvent B (90% acetonitrile, 10 mM ABC in water) over 70 minutes. Eluting peptides were collected every 45 seconds into a total of 96 fractions, which were cross-concatenated into 24 fractions and dried in a vacuum concentrator and resuspended in 3% acetonitrile with 0.1% TFA for LC-MS analysis.
# (§8) Mass spectrometry data acquisition. Tryptic peptides were analyzed on an Orbitrap Lumos coupled to an easy nLC 1200 (ThermoFisher Scientific) using a 35 cm long, 75 µm ID fused-silica column packed in house with 1.9 µm C18 particles (Reprosil pur, Dr. Maisch), and kept at 50 °C using an integrated column oven (Sonation). HPLC solvents consisted of 0.1% formic acid in water (buffer A) and 0.1% formic acid and 80% acetonitrile in water (buffer B). Assuming
# [6] = system: kinase protein levels in MCF-7 cells; experiment: TMT-labeled quantitative proteomics; assay type: cell-based, human; details: for kinase degradation: MCF-7 cells, 6 h
# Protocol: as §1, §2, §3, §4, §5, §6, §7, §8
# [7] = system: Jurkat cells; experiment: CellTiterGlo cell viability assay; assay type: cell-based, human; details: 24 h; for IC50: Homo sapiens, mean of triplicates, ^b/^c values estimated, read-out: IC50±sd/μM (cell viability)
# Procedure, shortened: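 Jurkat cells treated with compound titrations; viability read by CellTiter-Glo 2.0 luminescence after 10 min at room temperature, fitted to a four-parameter curve. Proteomics samples lysed in 2% SDS, 50 mM Tris pH 8.5, TCEP and CAA, sonicated, then analysed by label-free quantitation.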
# [8] = AAK1 intact (IC50±sd)/μM, NanoBRET, intact cells, mean of duplicates, ^a values estimated by extrapolation
# [9] = AAK1 permeabilized (IC50±sd)/μM, NanoBRET, permeabilized cells, mean of duplicates
# [10] = protein LINC00493, MCF7, 2.5 µM, set3
# [11] = protein LINC00493, MCF, 0.25µM, set4
# [12] = protein NBPF19;NBPF8;NBPF10;NBPF15;NBPF26;NBPF14;NBPF1;NBPF12, MCF, 0.25µM, set4
# [13] = protein NBPF19;NBPF8;NBPF26;NBPF14;NBPF12;NBPF10;NBPF15;NBPF1, MCF7, 2.5 µM, set3
# [14] = protein NBPF19;NBPF15;NBPF8;NBPF10;NBPF26;NBPF14, MCF7, 1 µM, set1.1
# [15] = protein NUDT4, MCF7, 1 µM, set1.1
# [16] = protein NUDT4;NUDT11;NUDT10, MCF, 0.25µM, set4
# [17] = protein UQCRHL;UQCRH, MCF, 0.25µM, set4
# [18] = protein SMIM26, MCF7, 1 µM, set2
# [19] = protein LINC00493, MCF7, 1 µM, set5
# T1 sequence (P28482 whole entry): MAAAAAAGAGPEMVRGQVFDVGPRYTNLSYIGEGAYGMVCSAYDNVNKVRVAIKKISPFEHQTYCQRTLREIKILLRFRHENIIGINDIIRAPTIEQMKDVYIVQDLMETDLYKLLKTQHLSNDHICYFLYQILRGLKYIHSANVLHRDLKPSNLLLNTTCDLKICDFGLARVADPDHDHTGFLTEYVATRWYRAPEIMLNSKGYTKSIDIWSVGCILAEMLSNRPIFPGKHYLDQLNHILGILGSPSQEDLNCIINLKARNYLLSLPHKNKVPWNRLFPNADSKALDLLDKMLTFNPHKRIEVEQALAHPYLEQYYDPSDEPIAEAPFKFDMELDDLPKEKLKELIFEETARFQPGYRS
"IC50 [3, 8]","IC50 [3, 9]",IC50 [4],"P.Value (compound/DMSO) [5, 10]","log2FC (compound/DMSO) [5, 10]","P.Value (compound/DMSO) [5, 11]","log2FC (compound/DMSO) [5, 11]",IC50 [7],SMILES,kinase degradation ([6]; 0.25 μM),kinase degradation ([6]; 1 μM),kinase degradation ([6]; 2.5 μM),"log2FC (compound/DMSO) [6, 12]","log2FC (compound/DMSO) [6, 13]","log2FC (compound/DMSO) [6, 14]","log2FC (compound/DMSO) [6, 15]","log2FC (compound/DMSO) [6, 16]","log2FC (compound/DMSO) [6, 17]",further results
0.099 ± 0.011 µM,0.023 ± 0.004 µM,,,,,,,CC(C)(C)OC(=O)NCCOCCOCCOCCOCCC(=O)N1CCN(c2cc(Nc3cc(C4CC4)[nH]n3)nc(Nc3ccc(CC#N)cc3)n2)CC1 [4-L],,,,,,,,,,ΔTm at 20 µM [1]: 3.2 °C; ΔTm at 20 µM [2]: 6.61 °C
0.21 ± 0.044 µM,0.057 ± 0.004 µM,1.13 ± 0.132 µM,0.002092,0.3781,0.1285,0.1013,,Cc1ncsc1-c1ccc(CNC(=O)[C@@H]2C[C@@H](O)CN2C(=O)[C@@H](NC(=O)CCOCCOCCOCCN2CCN(c3cc(Nc4cc(C5CC5)[nH]n4)nc(Nc4ccc(CC#N)cc4)n3)CC2)C(C)(C)C)cc1 [4-a],Few kinases were degraded,significant degradation of several kinases,the number of degraded kinases was again lower,0.1164,0.132,-0.3973,-0.04751,0.003804,0.8375,
0.308 ± 0.032 µM,0.07 ± 0.012 µM,,,,,,5.7 ± 1.5 µM,CC(C)(C)OC(=O)NCCCOCCOCCOCCCNC(=O)c1cc(Nc2cc(C3CC3)[nH]n2)nc(Nc2ccc(CC#N)cc2)n1 [5-L],,,,,,,,,,ΔTm at 20 µM [1]: 4.69 °C; ΔTm at 20 µM [2]: 3.47 °C
~8.76 µM,0.162 ± 0.002 µM,1.22 ± 0.665 µM,,,,,,Cc1ncsc1-c1ccc(CNC(=O)[C@@H]2C[C@@H](O)CN2C(=O)[C@@H](NC(=O)CCOCCOCCNC(=O)c2cc(Nc3cc(C4CC4)[nH]n3)nc(Nc3ccc(CC#N)cc3)n2)C(C)(C)C)cc1 [5-a],,did not result in significant degradation of any kinase,,,,-0.2083,-0.05063,,,"AAK1 intact (IC50±sd)/μM ([3]; NanoBRET, intact cells, mean of duplicates, ^a values estimated by extrapolation): single-digit micromolar; cell permeability / cell penetration ([3]; as shown by the NanoBRET data (intact vs permeabilized cells)): poor cell permeability"
0.299 ± 0.038 µM,0.192 ± 0.005 µM,0.972 ± 0.094 µM,,,,,~18.7 µM,CC(=O)N[C@H](C(=O)N1C[C@H](O)C[C@H]1C(=O)NCc1ccc(-c2scnc2C)cc1OCCOCCOCCOCCNC(=O)c1cc(Nc2cc(C3CC3)[nH]n2)nc(Nc2ccc(CC#N)cc2)n1)C(C)(C)C [5-b],,did not result in significant degradation of any kinase,,,,,,,,"P.Value (compound/DMSO) [5, 18]: 0.1541; log2FC (compound/DMSO) [5, 18]: -0.1317"
0.13 ± 0.003 µM,0.055 ± 0.002 µM,1.41 ± 0.083 µM,0.00484,-0.4049,0.5319,-0.03906,3.1 ± 0.8 µM,Cc1ncsc1-c1ccc(CNC(=O)[C@@H]2C[C@@H](O)CN2C(=O)[C@@H](NC(=O)CCOCCOCCOCCOCCN2CCN(c3ccc(Nc4ncc(Cl)c(Nc5ccccc5C(N)=O)n4)cc3)CC2)C(C)(C)C)cc1 [6-b],Few kinases were degraded,significant degradation of several kinases,the number of degraded kinases was again lower,-0.06617,-0.2581,-0.7206,-0.1525,0.182,0.8692,
0.1 ± 0.008 µM,0.053 ± 0.003 µM,5.83 ± 1.43 µM,,,,,~0.1 µM,Cc1ncsc1-c1ccc(CNC(=O)[C@@H]2C[C@@H](O)CN2C(=O)[C@@H](NC(=O)CCCCCCN2CCN(c3ccc(Nc4ncc(Cl)c(Nc5ccccc5C(N)=O)n4)cc3)CC2)C(C)(C)C)cc1 [6-d],,significant degradation of several kinases,,,,,,,,"P.Value (compound/DMSO) [5, 19]: 0.0001847; log2FC (compound/DMSO) [5, 19]: -0.9636; log2FC (compound/DMSO) ([6]; protein ARHGEF5;ARHGEF35, MCF7, 1 µM, set5): 0.09474; log2FC (compound/DMSO) ([6]; protein NBPF19;NBPF15;NBPF8;NBPF10;NBPF3;NBPF11;NBPF26;NBPF14;NBPF1;NBPF12, MCF7, 1 µM, set5): -0.4722; effect on cell viability (cytotoxicity) [7]: particularly pronounced effects on cell viability"
0.53 ± 0.246 µM,0.123 ± 0.02 µM,1.4 ± 0.174 µM,0.7735,0.04253,0.8916,-0.008166,,CC(=O)N[C@H](C(=O)N1C[C@H](O)C[C@H]1C(=O)NCc1ccc(-c2scnc2C)cc1OCCOCCOCCOCCOCCC(=O)N1CCN(c2ccc(Nc3ncc(Cl)c(Nc4ccccc4C(N)=O)n3)cc2)CC1)C(C)(C)C [6-e],no significantly degraded kinases were detected,did not result in significant degradation of any kinase,no significantly degraded kinases were detected,0.2043,0.155,,,-0.054,-0.5234,"P.Value (compound/DMSO) [5, 18]: 0.2313; log2FC (compound/DMSO) [5, 18]: -0.1331; effect on cell viability (cytotoxicity) [7]: no cytotoxicity was observed"
